Measurements taken from patent publication US12173088B2, “Anti-microbial peptides” (priority 2018, dated 2024).
Values after ≈ are worked out from the molar mass of the structure shown. Read-outs that look alike come from different tables or passages of the source. Peptide text beside a SMILES is read from it.

Key:
E. coli ATCC 25922 = format: cell-based, Escherichia coli
Method: (§1) The antibacterial activity of peptides was evaluated using a standard broth microdilution protocol with minor modifications as described (Mishra, et al. (2012) J. Am. Chem. Soc., 134:12426-12429). In brief, logarithmic phase bacterial cultures (i.e., optical density at 600 nm≈0.5) were diluted to OD600 0.001 and partitioned into a 96-well polystyrene microplate at 90 μL per well. After treatment with 10 μL of peptide solutions two fold diluted to various concentrations, microplates were incubated at 37° C. overnight and read on a ChroMate® 4300 Microplate Reader at 630 nm (GMI, Ramsey, MN). […] To study the influence of medium conditions on the antimicrobial activity of peptides against S. aureus USA300, up to 200 mM sodium chloride (NaCl), 2 mM of calcium chloride, 5-10% of human serum, mouse plasma, fluid, or supernatants of tissue homogenates were included into the assays.
(§2) The antibacterial activity of peptides was evaluated using a standard broth microdilution protocol with minor modifications (Mishra, et al. (2017) Acta Biomater., 49:316-328). In brief, logarithmic phase bacterial cultures (i.e., optical density at 600 nm≈0.5) were diluted to 0.001 OD and aliquoted 90 μL per well into a 96-well polystyrene microplate. Added 10 μL peptides per well with various concentrations, plates were incubated at 37° C., overnight. Post incubation the plates are read at 630 nm using a ChroMate® Microplate Reader (GMI). […] To study the influence of medium conditions on the antimicrobial activity of peptides against S. aureus USA300 at different pHs (6.8, 7.2, and 8.0), 150 mM sodium chloride (NaCl), 5-10% of human serum, mouse plasma, and peritoneal fluid were included into the assays.

S. aureus USA300 = assay: microbe, parasite or virus in culture; format: cell-based, Staphylococcus aureus
Description: The bacterial strains used include the Gram-positive strains Staphylococcus aureus USA300 LAC, S. epidermidis 1457, and Bacillus subtilis 168, as well as the Gram-negative isolates Escherichia coli K12 and Acinetobacter baumannii B2367-12. Additional, drug resistance strains include Gram-positive Enterococcus faecium V286-17 (VRE) and S. aureus M838-17 (MRSA) and Gram-negative E. coli E423-17, E. coli E416-17 (ampC), and P. aeruginosa E411-17. Bacteria were cultivated in tryptic soy broth (TSB) (BD Bioscience, MD).
as §1
(§3) The bacterial strains used include the Gram-positive bacteria methicillin-resistant Staphylococcus aureus USA300, Enterococcus faecium V286-17 (VRE), S. aureus M838-17 (MRSA) and Gram-negative bacteria E. coli E423-17, E416-7 (ampC), P. aeruginosa E411-17, PA01, K. pneumoniae E406-17, ATCC13883, and A. baumannii B26-16. Bacteria were cultivated in tryptic soy broth (TSB) from BD Bioscience.
as §2

P. aeruginosa PAO1 = format: cell-based, Pseudomonas aeruginosa
Method: as §1, §3, §2

[1] = tested on: human red blood cells (hRBCs); assay: Hemolytic assay; format: cell-based
Method: Briefly, human red blood cells (hRBCs) were washed three times with phosphate buffer saline (PBS) and diluted to a 2% solution (v/v). After peptide treatment, incubation at 37° C. for one hour, and centrifugation at 5000 rpm for 10 minutes, aliquots of the supernatant were carefully transferred to a fresh 96-well microplate. The amount of hemoglobin released was measured at 545 nm. The percent lysis was calculated by assuming 100% release when human blood cells were treated with 2% Triton™ X-100, and 0% release when incubated with PBS buffer. The peptide concentration that caused 50% lysis of hRBCs is defined as HL50. The cell selectivity index (CSI) was calculated as the ratio between HL50 and MIC of the corresponding peptide against a select pathogenic species.
Hemolytic assays of peptides were performed as described (Mishra, et al. (2017) Acta Biomater., 49:316-328). Briefly, human red blood cells (hRBCs) obtained from UNMC Blood Bank. The blood washed 3× with isotonic saline (0.9% NaCl) and diluted to 2% blood cells (v/v). Peptide horine and verine at various concentrations were added into the 2% blood cells and incubated at 37° C. for 1 hour. Post incubation the plates were spun at 2000 rpm for 10 minutes, aliquots of the supernatant were carefully transferred to a fresh 96-well microplate. The amount of cells lysed is proportional to the hemoglobin released and measured at 545 nm using a ChroMate® microplate reader. The percent lysis was calculated by assuming 100% release when human blood cells were treated with 1% Triton™ X-100, and 0% release when incubated with PBS. The peptide concentration that caused 50% lysis of hRBCs is defined as HL50.

K. pneumoniae ATCC 13883 = format: cell-based, Klebsiella pneumoniae; conditions: ATCC 13883
Method: as §1, §3, §2

| SMILES | MIC E. coli ATCC 25922 (E. coli ATCC 25922; ATCC 25922) [µM] | MIC S. aureus USA 300 (S. aureus USA300; USA300) [µM] | MIC P. aeruginosa PAO1 (P. aeruginosa PAO1; PAO1) [µM] | HL50 [1] [µM] | MIC K. pneumoniae ATCC 13883 (K. pneumoniae ATCC 13883) [µM] | MIC K. pneumonia ATCC 13883 (K. pneumoniae ATCC 13883) [µM] | further results |
| --- | --- | --- | --- | --- | --- | --- | --- |
| CC(C)C[C@H](NC(=O)[C@H](CC(C)C)NC(=O)[C@H](CCCCN)NC(=O)CNC(=O)[C@H](C)NC(=O)[C@H](C)NC(=O)[C@H](CCCCN)NC(=O)[C@H](CC(C)C)NC(=O)[C@H](C)NC(=O)[C@H](CO)NC(=O)[C@H](CC(C)C)NC(=O)[C@H](CC(C)C)NC(=O)CN)C(N)=O [DFT521, GLLSALKAAGKLL] (H-GLLSALKAAGKLL-NH2; N-terminus assumed) | 12.5 (≈ 15.7 µg/mL) | 12.5 (≈ 15.7 µg/mL) | >25 | >50 | – | – | MIC against S. aureus (S. aureus USA300; USA300): 12.5 to 25 µM |
| CC(C)C[C@H](NC(=O)[C@H](CC(C)C)NC(=O)[C@H](CCCCN)NC(=O)CNC(=O)[C@H](C)NC(=O)[C@H](C)NC(=O)[C@H](CCCCN)NC(=O)[C@H](C)NC(=O)[C@H](C)NC(=O)[C@H](CO)NC(=O)[C@H](CC(C)C)NC(=O)[C@H](CC(C)C)NC(=O)CN)C(N)=O [DFT522, GLLSAAKAAGKLL] (H-GLLSAAKAAGKLL-NH2; N-terminus assumed) | >25 | >25 | >25 | 50 | – | – | Antimicrobial activity (S. aureus USA300; at 25 μM): inactive |
| CC(C)C[C@H](NC(=O)[C@H](CC(C)C)NC(=O)[C@H](CCCCN)NC(=O)CNC(=O)[C@H](CC(C)C)NC(=O)[C@H](CC(C)C)NC(=O)[C@H](CO)NC(=O)[C@H](CC(C)C)NC(=O)[C@H](CO)NC(=O)[C@H](CC(C)C)NC(=O)[C@H](CC(C)C)NC(=O)CN)C(N)=O [DFT523, GLLSL-SLLGKLL] (H-GLLSLSLLGKLL-NH2; N-terminus and C-terminus assumed) | – | – | – | – | – | – | MIC against E. coli (E. coli ATCC 25922): 12.5 to 25 µM; MIC E. coli ATCC 25922 (E. coli ATCC 25922; Table 3, quantified by UV): 25 µM (≈ 30.6 µg/mL); MIC against S. aureus (S. aureus USA300; Example 1): 12.5 to 25 µM; MIC S. aureus USA 300 (S. aureus USA300; Table 3, quantified by UV): 12.5 µM (≈ 15.3 µg/mL); MIC P. aeruginosa PAO1 (P. aeruginosa PAO1; Table 3, quantified by UV): >25 µM; HL50 ([1]; Table 3, hRBCs 2% v/v): >50 µM |
| CC[C@H](C)[C@H](NC(=O)[C@H](CCCCN)NC(=O)[C@H](CCCNC(=N)N)NC(=O)[C@H](CC(C)C)NC(=O)[C@H](Cc1c[nH]c2ccccc12)NC(=O)[C@@H](N)Cc1c[nH]c2ccccc12)C(=O)N[C@@H](Cc1c[nH]c2ccccc12)C(=O)N[C@@H](Cc1c[nH]c2ccccc12)C(=O)O [WW292, WWLRKIWW] (H-WWLRKIWW-OH; N-terminus and C-terminus assumed) | 25 (≈ 31.8 µg/mL) | 6.2 (≈ 7.9 µg/mL) | – | – | >50 | – | – |
| CC[C@H](C)[C@H](NC(=O)[C@H](CCCCN)NC(=O)[C@H](CCCNC(=N)N)NC(=O)[C@H](CC(C)C)NC(=O)[C@@H](N)Cc1c[nH]c2ccccc12)C(=O)N[C@@H](Cc1c[nH]c2ccccc12)C(=O)N[C@@H](Cc1c[nH]c2ccccc12)C(=O)N[C@@H](Cc1c[nH]c2ccccc12)C(=O)O [WW293, WLRKIWWW] (H-WLRKIWWW-OH; N-terminus and C-terminus assumed) | 12.5 to 25 | 3.1 to 6.2 | – | – | 25 (≈ 31.8 µg/mL) | – | – |
| CC[C@H](C)[C@H](NC(=O)[C@H](CCCCN)NC(=O)[C@H](CCCNC(=N)N)NC(=O)[C@@H](N)CC(C)C)C(=O)N[C@@H](Cc1c[nH]c2ccccc12)C(=O)N[C@@H](Cc1c[nH]c2ccccc12)C(=O)N[C@@H](Cc1c[nH]c2ccccc12)C(=O)N[C@@H](Cc1c[nH]c2ccccc12)C(=O)O [WW294, LRKIWWWW] (H-LRKIWWWW-OH; N-terminus and C-terminus assumed) | 12.5 (≈ 15.9 µg/mL) | 3.1 to 6.2 | – | – | 6.2 to 12.5 | – | – |
| CC[C@H](C)[C@H](NC(=O)[C@@H](N)CCCCN)C(=O)N[C@@H](Cc1c[nH]c2ccccc12)C(=O)N[C@@H](Cc1c[nH]c2ccccc12)C(=O)N[C@@H](Cc1c[nH]c2ccccc12)C(=O)N[C@@H](Cc1c[nH]c2ccccc12)C(=O)N[C@@H](CC(C)C)C(=O)N[C@@H](CCCNC(=N)N)C(=O)O [WW296, KIWWWWLR] (H-KIWWWWLR-OH; N-terminus and C-terminus assumed) | 6.2 to 12.5 | 3.1 (≈ 3.95 µg/mL) | – | – | 12.5 (≈ 15.9 µg/mL) | – | – |
| CC[C@H](C)[C@H](NC(=O)[C@H](CCCCN)NC(=O)[C@H](CCCNC(=N)N)NC(=O)[C@H](CC(C)C)NC(=O)[C@H](Cc1c[nH]c2ccccc12)NC(=O)[C@H](Cc1c[nH]c2ccccc12)NC(=O)[C@H](Cc1c[nH]c2ccccc12)NC(=O)[C@@H](N)Cc1c[nH]c2ccccc12)C(=O)O [WW298, WWWWLRKI] (H-WWWWLRKI-OH; N-terminus and C-terminus assumed) | 12.5 (≈ 15.9 µg/mL) | 1.5 to 3.1 | – | – | 6.2 to 12.5 | – | – |
| CC[C@H](C)[C@H](NC(=O)[C@H](CCCNC(=N)N)NC(=O)[C@H](CCCNC(=N)N)NC(=O)[C@H](CC(C)C)NC(=O)[C@H](Cc1c[nH]c2ccccc12)NC(=O)[C@H](Cc1c[nH]c2ccccc12)NC(=O)[C@@H](N)Cc1c[nH]c2ccccc12)C(=O)N[C@@H](Cc1c[nH]c2ccccc12)C(N)=O [WW299, WWWLRRIW] (H-WWWLRRIW-NH2; N-terminus and C-terminus assumed) | – | – | >50 | 35 | – | 25 (≈ 32.5 µg/mL) | – |
| CC[C@H](C)[C@H](NC(=O)[C@H](CCCNC(=N)N)NC(=O)[C@H](CCCNC(=N)N)NC(=O)[C@H](CC(C)C)NC(=O)[C@H](Cc1c[nH]c2ccccc12)NC(=O)[C@H](Cc1c[nH]c2ccccc12)NC(=O)[C@@H](N)CCCNC(=N)N)C(=O)N[C@@H](Cc1c[nH]c2ccccc12)C(N)=O [WW300, RWWLRRIW] (H-RWWLRRIW-NH2; N-terminus and C-terminus assumed) | – | – | 12.5 (≈ 15.9 µg/mL) | >200 | – | >50 | – |
| CC[C@H](C)[C@H](NC(=O)[C@H](CCCNC(=N)N)NC(=O)[C@H](CCCNC(=N)N)NC(=O)[C@H](CC(C)C)NC(=O)[C@H](Cc1c[nH]c2ccccc12)NC(=O)[C@H](CCCNC(=N)N)NC(=O)[C@@H](N)Cc1c[nH]c2ccccc12)C(=O)N[C@@H](Cc1c[nH]c2ccccc12)C(N)=O [WW301, WRWLRRIW] (H-WRWLRRIW-NH2; N-terminus and C-terminus assumed) | – | – | 6.2 (≈ 7.88 µg/mL) | 100 | – | 25 (≈ 31.8 µg/mL) | – |
| CC[C@H](C)[C@H](NC(=O)[C@H](CCCNC(=N)N)NC(=O)[C@H](CCCNC(=N)N)NC(=O)[C@H](CC(C)C)NC(=O)[C@H](CCCNC(=N)N)NC(=O)[C@H](Cc1c[nH]c2ccccc12)NC(=O)[C@@H](N)Cc1c[nH]c2ccccc12)C(=O)N[C@@H](Cc1c[nH]c2ccccc12)C(N)=O [WW302, WWRLRRIW] (H-WWRLRRIW-NH2; N-terminus and C-terminus assumed) | – | – | 12.5 (≈ 15.9 µg/mL) | >200 | – | >25 | – |
